Series [1] addresses 5-hydroxytryptamine receptor 1B (Homo sapiens) (UniProt P28222). The series is described as follows: SafetyScreen: 5-HT1B Human Serotonin GPCR Binding Antagonist Radioligand LeadHunter Assay, catalogue number: 4376. The following applies: Test compound concentration 10.0 uM.
Series [2] addresses Vasopressin V1a receptor (Homo sapiens) (UniProt P37288). Kind of series: SafetyScreen: V1A Human Vasopressin / Oxytocin GPCR Binding Agonist Radioligand LeadHunter Assay, catalogue number: 159. The following applies: Test compound concentration 10.0 uM.
In series [3] the target is 5-hydroxytryptamine receptor 2A (Homo sapiens) (UniProt P28223). The series is described as follows: SafetyScreen: 5-HT2A Human Serotonin GPCR Binding Agonist Radioligand LeadHunter Assay, catalogue number: 471. The following applies: Test compound concentration 10.0 uM.
The species named for a further series is Rattus norvegicus. Kind of series: SafetyScreen: KV (Non-Selective) Rat Potassium Ion Channel [125I] alpha-Dendrotoxin Binding LeadHunter Assay, catalogue number: 166. The following applies: Test compound concentration 10.0 uM.
For series [4], the target named is Muscarinic acetylcholine receptor M3 (Homo sapiens) (UniProt P20309). Kind of series: SafetyScreen: M3 Human Acetylcholine (Muscarinic) GPCR Binding Antagonist Radioligand LeadHunter Assay, catalogue number: 95. The following applies: Test compound concentration 10.0 uM.
The target in series [5] is Mu-type opioid receptor (Homo sapiens) (UniProt P35372). Kind of series: SafetyScreen: mu (MOP) Human Opioid GPCR Binding Agonist Radioligand LeadHunter Assay, catalogue number: 118. The following applies: Test compound concentration 10.0 uM.
Series [6] has as its target T1, Androgen receptor (Homo sapiens) (UniProt P10275).
T1 sequence (whole entry): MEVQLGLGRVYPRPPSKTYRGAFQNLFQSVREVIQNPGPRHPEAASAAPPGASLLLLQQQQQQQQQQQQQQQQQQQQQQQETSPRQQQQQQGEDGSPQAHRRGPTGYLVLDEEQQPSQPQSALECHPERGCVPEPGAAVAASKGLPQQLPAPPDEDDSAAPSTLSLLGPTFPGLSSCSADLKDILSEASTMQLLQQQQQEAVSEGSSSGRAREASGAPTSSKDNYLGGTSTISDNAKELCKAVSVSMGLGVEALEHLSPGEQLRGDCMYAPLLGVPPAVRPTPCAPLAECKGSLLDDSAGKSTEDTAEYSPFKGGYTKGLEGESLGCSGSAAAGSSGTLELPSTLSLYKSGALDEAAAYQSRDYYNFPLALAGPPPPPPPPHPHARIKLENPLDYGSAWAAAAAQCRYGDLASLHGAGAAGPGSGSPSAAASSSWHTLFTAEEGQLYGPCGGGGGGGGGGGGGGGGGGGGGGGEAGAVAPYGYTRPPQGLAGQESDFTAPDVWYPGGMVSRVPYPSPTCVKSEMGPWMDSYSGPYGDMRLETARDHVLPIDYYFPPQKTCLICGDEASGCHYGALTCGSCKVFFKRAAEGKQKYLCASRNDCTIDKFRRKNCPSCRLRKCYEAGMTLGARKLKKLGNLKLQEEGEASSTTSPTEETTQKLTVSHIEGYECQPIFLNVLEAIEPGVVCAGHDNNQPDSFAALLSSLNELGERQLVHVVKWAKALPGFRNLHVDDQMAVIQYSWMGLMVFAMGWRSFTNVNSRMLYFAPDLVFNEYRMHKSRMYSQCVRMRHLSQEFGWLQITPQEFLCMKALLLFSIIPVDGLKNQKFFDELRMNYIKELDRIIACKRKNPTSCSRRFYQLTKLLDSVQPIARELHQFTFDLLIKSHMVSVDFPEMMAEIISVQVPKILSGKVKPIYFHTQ
The series is described as follows: SafetyScreen: AR Human Androgen NHR Binding Agonist Radioligand LeadHunter Assay, catalogue number: 933. The following applies: Test compound concentration 10.0 uM.

Series [7] concerns Voltage-gated sodium channel. Kind of series: SafetyScreen: Sodium Ion Channel Site 2 (Non-Selective) Rat Ion Channel [3H] Batrachotoxinin Binding LeadHunter Assay, catalogue number: 169. The class given is protein assay. The following applies: at 10 µM, test compound concentration 10 uM.
For series [8], the target named is Voltage-gated L-type calcium channel (Rattus norvegicus, UniProt P22002+Q02485+P27732). The series is described as follows: SafetyScreen: Cav1.2 (L-type) Rat Calcium Ion Channel Binding (Dihydropyridine Site) LeadHunter Assay, catalogue number: 161. The class given is protein assay. The following applies: at 10 µM, test compound concentration 10 uM.
Series [9] deals with T2, Prostaglandin G/H synthase 2 (Homo sapiens) (UniProt P35354).
T2 sequence (whole entry): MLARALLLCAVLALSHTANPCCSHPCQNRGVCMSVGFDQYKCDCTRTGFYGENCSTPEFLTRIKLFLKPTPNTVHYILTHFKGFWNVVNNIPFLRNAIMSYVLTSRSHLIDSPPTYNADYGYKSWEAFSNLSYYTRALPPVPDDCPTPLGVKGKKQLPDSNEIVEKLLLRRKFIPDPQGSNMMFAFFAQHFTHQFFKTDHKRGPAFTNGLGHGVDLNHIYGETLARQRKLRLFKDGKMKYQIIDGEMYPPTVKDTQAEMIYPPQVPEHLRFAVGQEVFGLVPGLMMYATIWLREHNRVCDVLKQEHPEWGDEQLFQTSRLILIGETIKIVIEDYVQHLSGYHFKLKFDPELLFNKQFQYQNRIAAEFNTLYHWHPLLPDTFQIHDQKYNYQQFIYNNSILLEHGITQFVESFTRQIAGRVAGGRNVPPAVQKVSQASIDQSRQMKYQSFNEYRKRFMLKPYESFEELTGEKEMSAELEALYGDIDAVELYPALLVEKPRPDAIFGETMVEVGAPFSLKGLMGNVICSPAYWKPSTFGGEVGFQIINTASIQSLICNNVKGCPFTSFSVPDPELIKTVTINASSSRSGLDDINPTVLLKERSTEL
The series is described as follows: SafetyScreen: COX2 Human Cyclooxygenase Enzymatic LeadHunter Assay, catalogue number: 4186. The following applies: Test compound concentration 10.0 uM. The class given is functional.

The target in series [10] is Glutamate NMDA receptor (Rattus norvegicus) (UniProt P35439+Q00959+Q00960+Q00961+Q62645+Q8VHN2+Q9R1M7). Kind of series: SafetyScreen: Glutamate (NMDA, Non-Selective) Rat Ion Channel [3H] CGP-39653 Binding LeadHunter Assay, catalogue number: 66. The following applies: Test compound concentration 10.0 uM. The format is protein-complex assay.
Series [11] concerns the target Sodium-dependent dopamine transporter (Homo sapiens) (UniProt Q01959). The series is described as follows: SafetyScreen: DAT Human Dopamine Transporter Binding Antagonist Radioligand LeadHunter Assay, catalogue number: 52. The following applies: Test compound concentration 10.0 uM.
Series [12] addresses T3, Alpha-1A adrenergic receptor (Homo sapiens) (UniProt P35348).
T3 sequence (whole entry): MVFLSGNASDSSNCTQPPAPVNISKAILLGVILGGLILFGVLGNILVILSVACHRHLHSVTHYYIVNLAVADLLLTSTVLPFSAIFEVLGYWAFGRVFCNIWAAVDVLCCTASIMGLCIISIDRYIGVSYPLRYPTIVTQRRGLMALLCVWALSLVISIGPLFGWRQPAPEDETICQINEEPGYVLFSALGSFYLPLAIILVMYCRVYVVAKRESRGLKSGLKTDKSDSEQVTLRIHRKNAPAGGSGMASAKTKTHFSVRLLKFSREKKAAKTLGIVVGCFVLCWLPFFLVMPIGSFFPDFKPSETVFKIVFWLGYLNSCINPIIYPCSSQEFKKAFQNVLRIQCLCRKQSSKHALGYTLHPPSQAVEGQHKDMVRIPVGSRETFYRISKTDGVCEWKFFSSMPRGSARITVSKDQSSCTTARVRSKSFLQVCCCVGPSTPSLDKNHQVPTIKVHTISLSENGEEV
The series is described as follows: SafetyScreen: alpha1A Human Adrenoceptor GPCR Binding Antagonist Radioligand LeadHunter Assay, catalogue number: 2338. The following applies: Test compound concentration 10.0 uM.

This note sets out measurements from ChEMBL document CHEMBL5442334, “ASAP - In vitro safety pharmacology profile” (2024).

Chain of Sodium-dependent dopamine transporter (Homo sapiens) (Q01959 whole entry): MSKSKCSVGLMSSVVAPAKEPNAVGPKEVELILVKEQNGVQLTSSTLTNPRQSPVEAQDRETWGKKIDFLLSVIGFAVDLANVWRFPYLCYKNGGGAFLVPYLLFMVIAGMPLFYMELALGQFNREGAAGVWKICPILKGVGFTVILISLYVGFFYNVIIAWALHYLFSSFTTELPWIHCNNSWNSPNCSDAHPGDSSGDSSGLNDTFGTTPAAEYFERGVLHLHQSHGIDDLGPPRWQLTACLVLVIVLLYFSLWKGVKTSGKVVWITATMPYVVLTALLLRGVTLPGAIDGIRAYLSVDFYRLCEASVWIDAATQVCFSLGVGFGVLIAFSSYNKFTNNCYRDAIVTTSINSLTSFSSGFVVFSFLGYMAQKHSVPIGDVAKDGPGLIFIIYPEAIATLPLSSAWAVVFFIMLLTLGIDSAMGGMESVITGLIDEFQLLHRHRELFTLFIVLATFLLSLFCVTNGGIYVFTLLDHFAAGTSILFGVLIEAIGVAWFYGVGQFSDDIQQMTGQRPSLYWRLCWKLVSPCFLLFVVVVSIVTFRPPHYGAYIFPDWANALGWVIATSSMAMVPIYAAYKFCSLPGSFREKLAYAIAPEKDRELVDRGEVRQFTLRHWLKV
Chain of Muscarinic acetylcholine receptor M3 (Homo sapiens) (P20309 whole entry, looked up): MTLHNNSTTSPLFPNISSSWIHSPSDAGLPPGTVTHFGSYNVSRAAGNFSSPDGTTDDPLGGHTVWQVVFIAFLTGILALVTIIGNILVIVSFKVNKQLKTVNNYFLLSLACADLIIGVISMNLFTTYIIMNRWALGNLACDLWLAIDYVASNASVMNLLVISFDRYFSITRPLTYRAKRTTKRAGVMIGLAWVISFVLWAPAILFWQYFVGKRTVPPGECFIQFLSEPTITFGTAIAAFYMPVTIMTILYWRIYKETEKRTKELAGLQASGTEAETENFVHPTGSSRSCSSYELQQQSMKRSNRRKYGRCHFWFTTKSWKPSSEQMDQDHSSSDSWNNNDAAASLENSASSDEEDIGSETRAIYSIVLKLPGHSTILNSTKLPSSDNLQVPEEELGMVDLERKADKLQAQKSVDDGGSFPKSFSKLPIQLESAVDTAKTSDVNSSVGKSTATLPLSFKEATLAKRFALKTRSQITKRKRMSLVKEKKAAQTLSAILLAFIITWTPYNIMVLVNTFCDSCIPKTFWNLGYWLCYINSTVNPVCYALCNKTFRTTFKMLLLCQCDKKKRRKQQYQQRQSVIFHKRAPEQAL
Chain of 5-hydroxytryptamine receptor 2A (Homo sapiens) (P28223 whole entry): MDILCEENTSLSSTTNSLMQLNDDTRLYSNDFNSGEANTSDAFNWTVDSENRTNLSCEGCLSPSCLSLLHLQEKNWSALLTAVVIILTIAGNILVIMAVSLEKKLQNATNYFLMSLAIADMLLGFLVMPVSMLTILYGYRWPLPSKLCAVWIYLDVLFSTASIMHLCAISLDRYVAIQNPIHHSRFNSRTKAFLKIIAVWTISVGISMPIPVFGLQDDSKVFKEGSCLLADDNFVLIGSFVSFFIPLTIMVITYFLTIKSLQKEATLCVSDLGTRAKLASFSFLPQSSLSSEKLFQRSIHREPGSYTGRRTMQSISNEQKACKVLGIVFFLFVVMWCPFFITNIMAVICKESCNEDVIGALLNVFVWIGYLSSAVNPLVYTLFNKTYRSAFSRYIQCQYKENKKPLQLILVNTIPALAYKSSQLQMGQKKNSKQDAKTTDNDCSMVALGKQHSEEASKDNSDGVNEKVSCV
Chain of Mu-type opioid receptor (Homo sapiens) (P35372 whole entry): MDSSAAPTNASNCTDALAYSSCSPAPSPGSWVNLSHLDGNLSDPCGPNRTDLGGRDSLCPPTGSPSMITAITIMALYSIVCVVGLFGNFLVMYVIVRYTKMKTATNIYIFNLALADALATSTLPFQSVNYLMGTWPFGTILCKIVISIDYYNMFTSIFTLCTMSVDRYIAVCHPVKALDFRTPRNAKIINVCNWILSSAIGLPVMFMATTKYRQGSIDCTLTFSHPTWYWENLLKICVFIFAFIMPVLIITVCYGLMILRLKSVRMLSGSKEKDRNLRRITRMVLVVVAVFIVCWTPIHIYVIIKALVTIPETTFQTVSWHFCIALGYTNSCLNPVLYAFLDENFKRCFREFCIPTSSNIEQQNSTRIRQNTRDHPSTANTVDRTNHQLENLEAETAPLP
Chain of 5-hydroxytryptamine receptor 1B (Homo sapiens) (P28222 whole entry): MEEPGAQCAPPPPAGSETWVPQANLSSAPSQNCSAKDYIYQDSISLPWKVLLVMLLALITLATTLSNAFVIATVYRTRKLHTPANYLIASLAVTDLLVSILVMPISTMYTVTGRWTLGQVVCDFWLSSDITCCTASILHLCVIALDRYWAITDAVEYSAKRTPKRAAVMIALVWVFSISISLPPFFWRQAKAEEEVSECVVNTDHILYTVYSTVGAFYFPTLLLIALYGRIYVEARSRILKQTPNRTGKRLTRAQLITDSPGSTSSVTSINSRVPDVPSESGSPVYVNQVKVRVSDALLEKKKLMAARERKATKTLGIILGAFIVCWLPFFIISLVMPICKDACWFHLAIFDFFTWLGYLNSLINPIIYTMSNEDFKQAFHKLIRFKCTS
Chain of Vasopressin V1a receptor (Homo sapiens) (P37288 whole entry, looked up): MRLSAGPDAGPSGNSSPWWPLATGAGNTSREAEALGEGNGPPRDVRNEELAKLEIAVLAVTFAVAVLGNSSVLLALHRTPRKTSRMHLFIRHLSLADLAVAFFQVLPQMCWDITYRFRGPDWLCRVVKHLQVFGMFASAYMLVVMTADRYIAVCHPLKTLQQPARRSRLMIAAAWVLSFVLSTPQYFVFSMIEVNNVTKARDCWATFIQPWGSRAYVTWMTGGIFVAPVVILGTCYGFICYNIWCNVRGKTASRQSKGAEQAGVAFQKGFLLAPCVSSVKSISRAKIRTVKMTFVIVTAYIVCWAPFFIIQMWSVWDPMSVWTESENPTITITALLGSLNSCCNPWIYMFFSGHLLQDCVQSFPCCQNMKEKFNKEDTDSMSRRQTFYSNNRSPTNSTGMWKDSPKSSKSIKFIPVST

As for `C[C@H](C(=O)O)[C@@H](NC(=O)c1ncnc2[nH]ccc12)c1ccc(Br)cc1`, the inhibition (commonly the relative decrease from the control value, in per cent) in series [1] is 1%; in series [2], 62%; in series [3], 1%; in the series listed under Rattus norvegicus, 0%; in [4], -9%; in series [5], -10%. The inhibition is 12% in series [6]; 7% in series [9]; 4% in series [10]; 4% in [11]; -8% in series [12]. Moreover, the results for the Inhibition in [7] and in [8] were 6% and -12%, respectively.
